The results in this text go back to ChEMBL document CHEMBL5537172 (J Med Chem, 2024).

The source made the active and inactive calls. No cut-off for these calls is given here. A value given as a limit tells only on which side of the number the result lay.

Data set [1] concerns the target Glycogen synthase kinase-3 beta (Homo sapiens, UniProt P49841). The experiment in a line: Inhibition of GSK3beta (unknown origin). It is filed as toxicity.
Data set [2] deals with T1, Receptor-type tyrosine-protein kinase FLT3 (Homo sapiens, UniProt P36888).
T1 sequence (P36888 whole entry): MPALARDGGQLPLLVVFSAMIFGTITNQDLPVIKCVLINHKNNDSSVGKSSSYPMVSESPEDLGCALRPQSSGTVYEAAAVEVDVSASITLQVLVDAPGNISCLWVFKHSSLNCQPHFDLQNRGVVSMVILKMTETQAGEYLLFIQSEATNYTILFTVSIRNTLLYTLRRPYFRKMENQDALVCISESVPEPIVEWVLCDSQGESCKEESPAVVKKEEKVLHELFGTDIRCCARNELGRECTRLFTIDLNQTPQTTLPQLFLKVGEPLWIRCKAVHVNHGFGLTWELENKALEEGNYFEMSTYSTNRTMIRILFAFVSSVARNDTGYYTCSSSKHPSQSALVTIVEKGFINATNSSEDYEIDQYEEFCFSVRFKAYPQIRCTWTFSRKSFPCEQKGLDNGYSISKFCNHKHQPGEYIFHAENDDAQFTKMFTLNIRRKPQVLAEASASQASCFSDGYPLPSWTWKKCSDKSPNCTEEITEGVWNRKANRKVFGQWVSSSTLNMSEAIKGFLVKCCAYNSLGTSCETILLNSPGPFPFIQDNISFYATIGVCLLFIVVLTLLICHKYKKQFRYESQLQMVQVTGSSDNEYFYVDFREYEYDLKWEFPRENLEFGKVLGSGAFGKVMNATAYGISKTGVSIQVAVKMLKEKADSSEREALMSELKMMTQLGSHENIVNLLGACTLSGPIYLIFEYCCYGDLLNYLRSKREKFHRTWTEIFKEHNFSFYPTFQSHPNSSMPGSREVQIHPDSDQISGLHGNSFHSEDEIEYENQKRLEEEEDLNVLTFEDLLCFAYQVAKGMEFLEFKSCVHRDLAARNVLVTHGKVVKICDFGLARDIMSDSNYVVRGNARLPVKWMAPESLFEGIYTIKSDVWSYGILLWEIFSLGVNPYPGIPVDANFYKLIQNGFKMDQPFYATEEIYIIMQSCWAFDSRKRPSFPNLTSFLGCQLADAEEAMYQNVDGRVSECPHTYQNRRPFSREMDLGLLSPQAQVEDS
As to the kind of experiment: Inhibition of FLT3 (unknown origin). It counts as toxicity.

Data set [3] concerns the target 5-hydroxytryptamine receptor 2B (Homo sapiens, UniProt P41595). As to the kind of experiment: Agonist activity at 5HT2B (unknown origin). It counts as toxicity.
The nature of a further data set: cells. The note with it: Homo sapiens, 92-1, 72 h.
The target in data set [4] is Protein kinase C alpha type (Homo sapiens, UniProt P17252). As to the kind of experiment: Inhibition of PKCalpha (unknown origin) incubated for 15 mins in presence of 33P-ATP by Topcount scintillation counting method.
Data set [5] in a line: Dissociation constant, pKa of compound. It is filed as physicochemical.
Data set [6] deals with T2, Protein kinase C theta type (Homo sapiens, UniProt Q04759). As to the kind of experiment: Inhibition of PKCtheta (unknown origin) incubated for 15 mins in presence of 33P-ATP by Topcount scintillation counting method.
Data set [7] can be described thus: Toxicity in mouse xenografted with human 92-1 cells assessed as enlarged GI track at 100 mg/kg, qd measured upto 15 days. It is filed as organism-based. Conditions: in vivo, 360 h, time < 15 day.
Data set [8] is described as follows: Toxicity in mouse xenografted with human 92-1 cells assessed as body weight loss at 100 mg/kg, qd measured upto 15 days. It is filed as organism-based. The note with it: in vivo, 360 h, time < 15 day. (A xenograft is tissue or cells of one species grown in another, often human tumour cells in immunodeficient mice.)
The nature of data set [9]: Toxicity in mouse xenografted with human 92-1 cells assessed as abdominal distention at 100 mg/kg, qd after 1 week. It is filed as organism-based. The note with it: in vivo, 168 h, time 1 weeks.
Data set [10] relates to 92-1. The experiment in a line: Antitumor activity against human 92-1 cells xenografted in mouse assessed as tumor suppression at 120 mg/kg, bid. It is filed as functional, organism-based.
Data set [11] has as its target Protein kinase C gamma type (Homo sapiens, UniProt P05129). The experiment in a line: Inhibition of PKCgamma (unknown origin).
In data set [12] the target is T3, Protein kinase C epsilon type (Homo sapiens, UniProt Q02156).
T3 sequence (Q02156 whole entry): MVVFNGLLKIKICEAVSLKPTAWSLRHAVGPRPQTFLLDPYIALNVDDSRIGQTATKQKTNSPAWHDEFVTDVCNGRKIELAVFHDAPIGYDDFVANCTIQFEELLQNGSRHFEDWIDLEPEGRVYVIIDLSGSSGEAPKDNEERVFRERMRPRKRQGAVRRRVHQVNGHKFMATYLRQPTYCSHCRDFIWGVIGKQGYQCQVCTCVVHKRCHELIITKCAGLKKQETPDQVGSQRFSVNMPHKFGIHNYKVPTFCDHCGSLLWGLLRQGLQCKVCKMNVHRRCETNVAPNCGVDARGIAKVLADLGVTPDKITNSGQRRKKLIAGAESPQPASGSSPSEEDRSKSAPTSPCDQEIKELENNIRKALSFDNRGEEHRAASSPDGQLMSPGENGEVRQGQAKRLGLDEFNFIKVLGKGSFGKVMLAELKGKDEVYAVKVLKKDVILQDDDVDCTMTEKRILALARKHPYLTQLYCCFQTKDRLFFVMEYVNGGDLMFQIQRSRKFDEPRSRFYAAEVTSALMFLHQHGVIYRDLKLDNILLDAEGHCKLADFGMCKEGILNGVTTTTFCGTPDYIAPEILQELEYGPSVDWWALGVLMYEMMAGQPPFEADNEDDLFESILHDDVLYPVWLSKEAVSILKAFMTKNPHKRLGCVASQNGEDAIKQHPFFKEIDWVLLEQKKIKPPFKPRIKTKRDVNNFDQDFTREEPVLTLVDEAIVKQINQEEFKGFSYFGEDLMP
As to the kind of experiment: Inhibition of PKCepsilon (unknown origin).

The target in data set [13] is Protein kinase C eta type (Homo sapiens, UniProt P24723). The experiment in a line: Inhibition of PKCeta (unknown origin).
Another data set has as its system SK-MEL-28. As to the kind of experiment: cells. The note with it: Homo sapiens.
Data set [14] has as its target Protein kinase C delta type (Homo sapiens, UniProt Q05655). As to the kind of experiment: Inhibition of PKCdelta (unknown origin).
Data set [15] has as its target T2, Protein kinase C theta type. As to the kind of experiment: Inhibition of PKCtheta (unknown origin).
The subject of data set [16] is 92-1. As to the kind of experiment: Antitumor activity against human 92-1 cells xenografted in mouse assessed as tumor suppression at 100 mg/kg, qd. It is filed as functional, organism-based.

Chain of Glycogen synthase kinase-3 beta (P49841 whole entry): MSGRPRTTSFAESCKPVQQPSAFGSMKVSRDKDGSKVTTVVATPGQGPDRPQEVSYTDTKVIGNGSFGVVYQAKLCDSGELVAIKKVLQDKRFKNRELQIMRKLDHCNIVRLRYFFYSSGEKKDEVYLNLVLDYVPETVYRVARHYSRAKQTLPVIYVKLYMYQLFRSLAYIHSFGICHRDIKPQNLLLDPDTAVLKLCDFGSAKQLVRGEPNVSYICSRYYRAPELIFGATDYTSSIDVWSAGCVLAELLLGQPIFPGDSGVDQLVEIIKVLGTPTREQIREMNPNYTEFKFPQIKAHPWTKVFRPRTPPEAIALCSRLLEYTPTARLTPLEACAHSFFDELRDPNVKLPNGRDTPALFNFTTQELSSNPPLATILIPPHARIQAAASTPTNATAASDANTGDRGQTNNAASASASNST
Chain of 5-hydroxytryptamine receptor 2B (P41595 whole entry): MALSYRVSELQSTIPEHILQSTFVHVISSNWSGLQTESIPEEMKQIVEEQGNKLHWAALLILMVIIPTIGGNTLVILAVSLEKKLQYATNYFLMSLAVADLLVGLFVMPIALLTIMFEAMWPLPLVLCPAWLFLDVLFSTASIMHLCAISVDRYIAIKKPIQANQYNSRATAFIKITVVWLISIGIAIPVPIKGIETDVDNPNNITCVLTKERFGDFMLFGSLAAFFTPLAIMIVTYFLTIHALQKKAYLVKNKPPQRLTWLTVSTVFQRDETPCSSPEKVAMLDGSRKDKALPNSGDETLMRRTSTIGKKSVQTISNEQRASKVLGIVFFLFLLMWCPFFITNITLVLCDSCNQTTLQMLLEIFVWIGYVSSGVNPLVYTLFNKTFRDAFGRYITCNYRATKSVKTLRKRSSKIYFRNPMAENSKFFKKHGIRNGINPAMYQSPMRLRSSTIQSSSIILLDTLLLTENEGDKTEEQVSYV
T2 sequence (Q04759 whole entry): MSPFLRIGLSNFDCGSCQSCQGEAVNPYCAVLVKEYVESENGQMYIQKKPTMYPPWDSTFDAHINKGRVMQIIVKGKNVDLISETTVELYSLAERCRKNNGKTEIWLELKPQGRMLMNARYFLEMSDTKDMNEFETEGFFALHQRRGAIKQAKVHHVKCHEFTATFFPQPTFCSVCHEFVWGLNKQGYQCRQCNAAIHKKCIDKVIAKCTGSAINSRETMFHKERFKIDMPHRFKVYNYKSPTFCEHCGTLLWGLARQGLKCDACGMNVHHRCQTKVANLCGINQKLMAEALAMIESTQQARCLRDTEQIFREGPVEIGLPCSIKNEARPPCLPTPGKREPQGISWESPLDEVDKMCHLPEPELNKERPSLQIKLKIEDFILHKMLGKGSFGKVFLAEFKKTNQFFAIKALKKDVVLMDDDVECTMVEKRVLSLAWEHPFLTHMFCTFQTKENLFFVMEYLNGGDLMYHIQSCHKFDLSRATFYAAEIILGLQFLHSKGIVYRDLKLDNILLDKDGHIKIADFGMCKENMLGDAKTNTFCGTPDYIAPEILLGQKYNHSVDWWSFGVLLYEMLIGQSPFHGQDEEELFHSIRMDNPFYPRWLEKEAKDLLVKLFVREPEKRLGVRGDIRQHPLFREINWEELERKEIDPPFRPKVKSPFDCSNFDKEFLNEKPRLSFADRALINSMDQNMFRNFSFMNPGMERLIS
Chain of Protein kinase C eta type (P24723 whole entry): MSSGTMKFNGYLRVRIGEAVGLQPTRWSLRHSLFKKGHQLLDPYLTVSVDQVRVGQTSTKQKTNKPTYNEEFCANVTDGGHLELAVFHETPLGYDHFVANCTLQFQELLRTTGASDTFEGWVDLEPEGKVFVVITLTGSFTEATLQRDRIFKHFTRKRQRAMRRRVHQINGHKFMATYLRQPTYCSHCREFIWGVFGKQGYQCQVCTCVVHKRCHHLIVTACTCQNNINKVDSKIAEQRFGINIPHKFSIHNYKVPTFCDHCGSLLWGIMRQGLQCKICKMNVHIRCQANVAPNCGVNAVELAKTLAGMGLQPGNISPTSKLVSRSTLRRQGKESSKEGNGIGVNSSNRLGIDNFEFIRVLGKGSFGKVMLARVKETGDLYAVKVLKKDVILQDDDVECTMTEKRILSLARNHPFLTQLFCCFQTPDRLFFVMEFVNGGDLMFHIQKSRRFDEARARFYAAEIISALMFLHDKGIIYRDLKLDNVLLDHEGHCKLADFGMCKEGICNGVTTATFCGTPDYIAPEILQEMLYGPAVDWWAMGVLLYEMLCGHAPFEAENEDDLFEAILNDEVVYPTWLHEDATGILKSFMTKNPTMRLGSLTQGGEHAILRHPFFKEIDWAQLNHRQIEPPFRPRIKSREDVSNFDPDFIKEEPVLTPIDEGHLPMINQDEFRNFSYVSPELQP
Chain of Protein kinase C delta type (Q05655 whole entry): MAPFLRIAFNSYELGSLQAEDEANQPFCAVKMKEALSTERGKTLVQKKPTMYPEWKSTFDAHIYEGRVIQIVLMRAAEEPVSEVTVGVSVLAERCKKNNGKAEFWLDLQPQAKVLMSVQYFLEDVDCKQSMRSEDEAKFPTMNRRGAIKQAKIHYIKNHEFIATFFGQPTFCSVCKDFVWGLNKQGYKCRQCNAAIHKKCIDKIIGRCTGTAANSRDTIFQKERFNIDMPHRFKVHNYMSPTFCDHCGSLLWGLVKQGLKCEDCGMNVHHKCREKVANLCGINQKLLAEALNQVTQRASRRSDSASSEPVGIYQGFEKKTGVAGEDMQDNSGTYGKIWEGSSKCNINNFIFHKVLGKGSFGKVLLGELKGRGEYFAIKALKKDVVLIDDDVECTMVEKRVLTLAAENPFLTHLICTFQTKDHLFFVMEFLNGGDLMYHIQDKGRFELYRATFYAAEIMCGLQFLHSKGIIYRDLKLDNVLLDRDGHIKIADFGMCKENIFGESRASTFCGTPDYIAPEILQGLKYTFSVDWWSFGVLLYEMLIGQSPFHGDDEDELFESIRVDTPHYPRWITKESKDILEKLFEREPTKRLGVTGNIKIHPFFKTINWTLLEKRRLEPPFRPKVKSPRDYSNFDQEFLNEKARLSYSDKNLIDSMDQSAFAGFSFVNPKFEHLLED

A word on the IC50: it is the concentration needed to halve the response being measured. `Nc1ncc(-c2cccc3[nH]ncc23)nc1C(=O)Nc1ncccc1N1CCC(N)CC1`: the figures for the IC50 in data set [1] and in [2] were 41 nM and 31 nM, respectively.

The term EC50 denotes the midpoint of the concentration-response curve. Higher therefore signals lower potency in that assay. In data set [3], `Nc1ncc(-c2ncccc2C(F)(F)F)nc1C(=O)Nc1ncccc1N1CCC(N)CC1` returned an EC50 of 160 nM. Moreover, inhibition in [2] was half-maximal at 8700 nM (IC50).

For orientation: pKa means the pH at which an ionisable group is half protonated. A high value points to a group that holds its proton tightly. As to `Nc1ncc(-c2ncccc2C(F)(F)F)nc1C(=O)Nc1ncccc1N1C[C@H]2CC[C@@H](C1)[C@@H]2N`, the EC50 in [3] is greater than 30000 nM; in “cells”, 1390 nM. Further, the IC50 in data set [4] came to 10 nM; in data set [6] it was 3 nM. This compound showed a pKa in [5] of 9.4.

`Nc1ncc(-c2nc(N3CCOCC3)cc3ccccc23)nc1C(=O)Nc1ncccc1N1CCC(N)CC1`: the EC50 amounted to 160 nM in data set [3] and 22 nM in “cells”.

In the case of `CNc1ncc(-c2ncccc2OC(F)(F)F)nc1C(=O)Nc1cnccc1N1CCC(N)CC1`, the Activity result in data set [7], in data set [8] and in data set [9] was “Non-Toxic” each time. This compound came in with an IC50 in the data set “cells” of 3700 nM.

Turning to `CN1CCN(c2nc(C3=C(c4c[nH]c5ccccc45)C(=O)NC3=O)c3ccccc3n2)CC1` [SOTRASTAURIN], the result with 92-1 [10] was Active. Moreover, the IC50 was 64 nM in [11]; 250 nM in “cells”; 5.4 nM in data set [12]; 5.9 nM in data set [13]; greater than 10000 nM in the data set with SK-MEL-28; 6 nM in [14]. Besides, the IC50 in data set [6] is 0.3 nM; in [15], 2.1 nM.

On to `Nc1ncc(-c2nc(N3CCOCC3)ccc2C(F)(F)F)nc1C(=O)Nc1ncccc1N1CCC(N)CC1`, for which the EC50 in data set [3] was determined as 150 nM. The compound further had an IC50 in [2] of 230 nM.

For the compound `Nc1ncc(-c2cccc3[nH]ccc23)nc1C(=O)Nc1ncccc1N1CCC(N)CC1`, the concentration giving a half-maximal response (EC50) came out at 780 nM in data set [3] and 11 nM in the data set “cells”. The IC50 in data set [1] was 19 nM; in data set [2] it was 33 nM.

As for `CN(C)c1ccc(C(F)(F)F)c(-c2cnc(N)c(C(=O)Nc3ncccc3N3CCC(N)CC3)n2)n1`, the EC50 in the data set “cells” is 66 nM. Further, the figures for the IC50 in data set [1] and in [2] were 2700 nM and 95 nM, respectively.

Turning to `CO[C@H]1CN(c2ccncc2NC(=O)c2nc(-c3ncccc3OC(F)(F)F)cnc2N)CC[C@@H]1N`, the IC50 in “cells” stood at 140 nM; in data set [4], 0.2 nM; in data set [6], 2 nM.

With `Nc1ncc(-c2ncccc2F)nc1C(=O)Nc1ncccc1N1CCC(N)CC1`, it took 41 nM to reach a half-maximal effect in data set [3] (EC50).

Take `Nc1ncc(-c2ncccc2OC(F)(F)F)nc1C(=O)Nc1ccncc1N1CCC(N)CC1`: in the data set “cells”, the EC50 worked out at 230 nM. In addition, the IC50 is 530 nM in data set [1], 0.4 nM in data set [4], 1.3 nM in data set [6] and 30 nM in data set [2].

Consider `Nc1ncc(-c2ncccc2OC(F)(F)F)nc1C(=O)Nc1ncccc1N1CCC(N)CC1`, for which the half-maximal effective concentration (EC50) in data set [3] came out at 200 nM; in the data set “cells”, 180 nM. This compound showed a pKa in data set [5] of 8.9. The same compound had an IC50 in data set [2] of 8460 nM.

On to `Nc1ncc(-c2ncnc3sccc23)nc1C(=O)Nc1ncccc1N1CCC(N)CC1`, for which the IC50 in data set [1] was determined as 710 nM; in data set [2], 4100 nM.

With `Nc1ncc(-c2nc(N3CCC3)ccc2C(F)(F)F)nc1C(=O)Nc1ncccc1N1CCC(N)CC1`, the figures for the IC50 in data set [1] and in data set [2] were 2900 nM and 140 nM, respectively.

With `COC1CN(c2cccnc2NC(=O)c2nc(-c3ncccc3OC(F)(F)F)cnc2N)CCC1N` (trans isomer), the EC50 is greater than 30000 nM in data set [3] and 2800 nM in the data set “cells”. Besides, the pKa in [5] was 8.

For `Nc1ncc(-c2ncccc2OC(F)(F)F)nc1C(=O)Nc1ncccc1N1CCC(N)C(F)(F)C1` (stereo not drawn), the EC50 is 2000 nM in [3] and 1740 nM in the data set “cells”. The IC50 in data set [4] came out at 11 nM; in data set [6], 10 nM. This compound had a pKa in data set [5] of 6.

Consider `Nc1ncc(-c2ncccc2C(F)(F)F)nc1C(=O)Nc1cccnc1N1CCC(N)CC1`, for which the EC50 in “cells” stood at 3660 nM. Moreover, the IC50 in data set [1] came to 6900 nM; in [4], 43 nM; in data set [6], 69 nM; in [2] it was 3000 nM.

As to `Nc1ncc(-c2ncccc2OC(F)(F)F)nc1C(=O)Nc1cnccc1N1CCC(N)CC1`, the Activity result in [7], in data set [8] and in [9] was “Toxic” throughout. The compound also returned an EC50 in “cells” of 36 nM. Moreover, the IC50 in data set [1] stood at 10 nM; in data set [2] it was 230 nM. Further, in the data set on 92-1 [16], the outcome was Active.

With `Nc1ncc(-c2ncccc2OC(F)(F)F)nc1C(=O)Nc1ncccc1N1CCC(N)C(F)C1` (stereo not drawn), the results for the half-maximal effective concentration (EC50) (in [3]; in the data set “cells”) were 43 nM and 153 nM, respectively. The compound further came in with a pKa in [5] of 7.6.
